According to patent publication US20230398130A1, “METHODS AND COMPOSITIONS FOR DIFFERENTIATING STEM CELLS” (Massachusetts Institute of Technology, priority 2020, published 2023):

Tests used:
ISC-enriched organoids [1] = assay: Primary screen, 384-well 2.5-D organoid differentiation (ENR+CD, 6 days): carbachol-induced lysozyme secretion (LYZ.S); assay type: cell-based, murine; settings: for Dose.FC.LYZ.S: ENR+CD, 6 days, FC vs plate median; for Dose.FC.LYZ.S (log 2 fold change): primary screen; for Dose.FC.LYZ.S (log 2 fold change) / Dose.FC.LYZ.S (log 2 fold change, carbachol-induced lysozyme secretion): vs plate median
Text: (§1) High-throughput screening.

ISC-enriched organoids [2] = assay: Primary screen, 384-well 2.5-D organoid differentiation (ENR+CD, 6 days): basal lysozyme secretion (LYZ.NS); assay type: cell-based, murine; settings: for Dose.FC.LYZ.NS: ENR+CD, 6 days, FC vs plate median; for Z.LYZ.NS: standard z score of FC; for Dose.FC.LYZ.NS (log 2 fold change) / Dose.FC.LYZ.NS (log 2 fold change, basal lysozyme secretion): vs plate median
Text: as §1

ISC-enriched organoids [3] = assay: Primary screen, 384-well 2.5-D organoid differentiation (ENR+CD, 6 days, Target Selective Inhibitor Library, vs whole-plate median): ATP (CellTiter-Glo 3D, CTG); settings: for Dose.FC.CTG: ENR+CD, 6 days, FC vs plate median; for Z.CTG: standard z score of FC; for Dose.FC.CTG (log 2 fold change) / Dose.FC.CTG (log 2 fold change, ATP): vs plate median

Row | SMILES | Dose.FC.LYZ.S (ISC-enriched organoids [1]; Dose 0.08 uM) | Dose.FC.LYZ.S (ISC-enriched organoids [1]; Dose 0.40 uM) | Dose.FC.LYZ.S (ISC-enriched organoids [1]; Dose 2.00 uM) | Dose.FC.LYZ.S (ISC-enriched organoids [1]; Dose 10.00 uM) | Dose.FC.LYZ.NS (ISC-enriched organoids [2]; Dose 0.08 uM) | Z.LYZ.NS (ISC-enriched organoids [2]; Dose 0.08 uM) | Dose.FC.LYZ.NS (ISC-enriched organoids [2]; Dose 0.40 uM) | Z.LYZ.NS (ISC-enriched organoids [2]; Dose 0.40 uM) | Dose.FC.LYZ.NS (ISC-enriched organoids [2]; Dose 2.00 uM) | Z.LYZ.NS (ISC-enriched organoids [2]; Dose 2.00 uM) | Dose.FC.LYZ.NS (ISC-enriched organoids [2]; Dose 10.00 uM) | Z.LYZ.NS (ISC-enriched organoids [2]; Dose 10.00 uM) | Dose.FC.CTG (ISC-enriched organoids [3]; Dose 0.08 uM) | Z.CTG (ISC-enriched organoids [3]; Dose 0.08 uM) | Dose.FC.CTG (ISC-enriched organoids [3]; Dose 0.40 uM) | Z.CTG (ISC-enriched organoids [3]; Dose 0.40 uM) | Dose.FC.CTG (ISC-enriched organoids [3]; Dose 2.00 uM) | Z.CTG (ISC-enriched organoids [3]; Dose 2.00 uM) | Dose.FC.CTG (ISC-enriched organoids [3]; Dose 10.00 uM) | Z.CTG (ISC-enriched organoids [3]; Dose 10.00 uM) | also measured
1 | CC1(COc2ccc3c(c2)ncn3-c2ccc3cccc(N4CCC(N)CC4)c3n2)COC1 [Crenolanib (CP-868596)] | 0.094 log 2 fold change | 0.043 log 2 fold change | 0.149 log 2 fold change | −0.292 log 2 fold change | 0.121 log 2 fold change | 1.051 | 0.051 log 2 fold change | 0.441 | 0.122 log 2 fold change | 1.065 | −0.224 log 2 fold change | −1.951 | −0.069 log 2 fold change | −0.165 | −0.025 log 2 fold change | −0.059 | 0.053 log 2 fold change | 0.127 | −0.338 log 2 fold change | −0.808 | 
2 | COc1cc2c(cc1Cc1cccc(Cl)c1F)c(=O)c(C(=O)O)cn2[C@H](CO)C(C)C [Elvitegravir (GS-9137, JTK-303)] | −0.010 log 2 fold change | 0.092 log 2 fold change | −0.126 log 2 fold change | −0.135 log 2 fold change | −0.047 log 2 fold change | −0.412 | −0.069 log 2 fold change | −0.598 | −0.094 log 2 fold change | −0.821 | −0.090 log 2 fold change | −0.782 | −0.001 log 2 fold change | −0.001 | −0.040 log 2 fold change | −0.095 | −0.344 log 2 fold change | −0.823 | −0.737 log 2 fold change | −1.760 | 
3 | CN1CCC(CNc2ccc3ncc(-c4cccc(OC(F)(F)F)c4)n3n2)CC1 [SGI-1776free base] |  |  |  |  |  |  |  |  |  |  |  |  |  |  |  |  |  |  |  |  | Dose.FC.LYZ.S (log 2 fold change) (ISC-enriched organoids [1]; Dose 0.08 uM): 0.159; Dose.FC.LYZ.S (log 2 fold change) (ISC-enriched organoids [1]; Dose 0.40 uM): 0.088; Dose.FC.LYZ.S (log 2 fold change) (ISC-enriched organoids [1]; Dose 2.00 uM): 0.011; Dose.FC.LYZ.S (log 2 fold change) (ISC-enriched organoids [1]; Dose 10.00 uM): −0.317; Z.LYZ.NS (standard z score) (ISC-enriched organoids [2]; Dose 0.08 uM, primary screen): 1.013; Dose.FC.LYZ.NS (log 2 fold change) (ISC-enriched organoids [2]; Dose 0.08 uM, primary screen): 0.116; Z.LYZ.NS (standard z score) (ISC-enriched organoids [2]; Dose 0.40 uM, primary screen): 0.362; Dose.FC.LYZ.NS (log 2 fold change) (ISC-enriched organoids [2]; Dose 0.40 uM, primary screen): 0.042; Z.LYZ.NS (standard z score) (ISC-enriched organoids [2]; Dose 2.00 uM, primary screen): 0.108; Dose.FC.LYZ.NS (log 2 fold change) (ISC-enriched organoids [2]; Dose 2.00 uM, primary screen): 0.012; Z.LYZ.NS (standard z score) (ISC-enriched organoids [2]; Dose 10.00 uM, primary screen): −1.784; Dose.FC.LYZ.NS (log 2 fold change) (ISC-enriched organoids [2]; Dose 10.00 uM, primary screen): −0.205; Z.CTG (standard z score) (ISC-enriched organoids [3]; Dose 0.08 uM, primary screen): 0.407; Dose.FC.CTG (log 2 fold change) (ISC-enriched organoids [3]; Dose 0.08 uM, primary screen): 0.170; Z.CTG (standard z score) (ISC-enriched organoids [3]; Dose 0.40 uM, primary screen): 0.665; Dose.FC.CTG (log 2 fold change) (ISC-enriched organoids [3]; Dose 0.40 uM, primary screen): 0.278; Z.CTG (standard z score) (ISC-enriched organoids [3]; Dose 2.00 uM, primary screen): 0.506; Dose.FC.CTG (log 2 fold change) (ISC-enriched organoids [3]; Dose 2.00 uM, primary screen): 0.212; Z.CTG (standard z score) (ISC-enriched organoids [3]; Dose 10.00 uM, primary screen): −2.468; Dose.FC.CTG (log 2 fold change) (ISC-enriched organoids [3]; Dose 10.00 uM, primary screen): −1.033
4 | C[C@@H]1CCN(C(=O)CC#N)C[C@@H]1N(C)c1ncnc2[nH]ccc12 [Tofacitinib (CP-690550, Tasocitinib)] |  |  |  |  |  |  |  |  |  |  |  |  |  |  |  |  |  |  |  |  | Dose.FC.LYZ.S (log 2 fold change, carbachol-induced lysozyme secretion) (ISC-enriched organoids [1]; dose 0.08 uM): 0.022; Dose.FC.LYZ.S (log 2 fold change, carbachol-induced lysozyme secretion) (ISC-enriched organoids [1]; dose 0.40 uM): 0.010; Dose.FC.LYZ.S (log 2 fold change, carbachol-induced lysozyme secretion) (ISC-enriched organoids [1]; dose 2.00 uM): 0.025; Dose.FC.LYZ.S (log 2 fold change, carbachol-induced lysozyme secretion) (ISC-enriched organoids [1]; dose 10.00 uM): 0.010; Z.LYZ.NS (standard z score) (ISC-enriched organoids [2]; dose 0.08 uM): −0.146; Dose.FC.LYZ.NS (log 2 fold change, basal lysozyme secretion) (ISC-enriched organoids [2]; dose 0.08 uM): −0.017; Z.LYZ.NS (standard z score) (ISC-enriched organoids [2]; dose 0.40 uM): −0.132; Dose.FC.LYZ.NS (log 2 fold change, basal lysozyme secretion) (ISC-enriched organoids [2]; dose 0.40 uM): −0.015; Z.LYZ.NS (standard z score) (ISC-enriched organoids [2]; dose 2.00 uM): −0.061; Dose.FC.LYZ.NS (log 2 fold change, basal lysozyme secretion) (ISC-enriched organoids [2]; dose 2.00 uM): −0.007; Z.LYZ.NS (standard z score) (ISC-enriched organoids [2]; dose 10.00 uM): −0.036; Dose.FC.LYZ.NS (log 2 fold change, basal lysozyme secretion) (ISC-enriched organoids [2]; dose 10.00 uM): −0.004; Z.CTG (standard z score) (ISC-enriched organoids [3]; dose 0.08 uM): 0.312; Dose.FC.CTG (log 2 fold change, ATP) (ISC-enriched organoids [3]; dose 0.08 uM): 0.130; Z.CTG (standard z score) (ISC-enriched organoids [3]; dose 0.40 uM): 0.595; Dose.FC.CTG (log 2 fold change, ATP) (ISC-enriched organoids [3]; dose 0.40 uM): 0.249; Z.CTG (standard z score) (ISC-enriched organoids [3]; dose 2.00 uM): 0.278; Dose.FC.CTG (log 2 fold change, ATP) (ISC-enriched organoids [3]; dose 2.00 uM): 0.117; Z.CTG (standard z score) (ISC-enriched organoids [3]; dose 10.00 uM): 0.563; Dose.FC.CTG (log 2 fold change, ATP) (ISC-enriched organoids [3]; dose 10.00 uM): 0.236
